The text below walks through data of patent US20130315834A1, “NANOPROBE COMPRISING GOLD COLLOID NANOPARTICLES FOR MULTIMODALITY OPTICAL IMAGING OF CANCER AND TARGETED DRUG DELIVERY FOR CANCER” (priority 2010, published 2013).

One assay has as its system A-431 cells. The experiment in a line: In-vitro uptake of hypericin, confocal fluorescence microscopy. Format: cell-based, human. The conditions noted are these: about 3 hours incubation, FIG. 9b. As to the method:
Targeting and localization of the nanoprobes to cellular receptors is assessed using dark field contrast imaging and confocal fluorescence microscopy. Briefly, A-431 cells are incubated with the nanoprobes for about 3 hours at about 37° C. The cells are then washed in PBS, fixed in 2% paraformaldehyde for about 10 mins and mounted in Vectashield fluorescent mounting medium (Vector Laboratories, Burlingame, Calif.). The cells are visualized via dark field illumination system (CytoViva, Auburn, Ala.) attached to a Nikon Eclipse 80i microscope. The in-vitro localization of the nanoprobes is also assessed by exciting the cells using a 488 nm argon laser. Fluorescence emission in the wavelength range of 590-630 nm is split by a dichroic filter and detected through a band pass filter (BP-610 nm; Omega Optical, Brattleboro, Vt.). […]
Confocal fluorescence microscopy is used to study CNE2 cells treated with 2 hypericin and A-431 cells treated with Hypericin-Au-EGFR theragnostic probe for about 6 hours under physiological conditions. […]
Using confocal laser scanning microscope, the in-vitro uptake of hypericin-GNP labeled with anti-EGFR after about 3 hours incubation is also assessed. […] The intensity of hypericin fluorescence following incubation of hypericin alone is greater compared to incubating the cells with bioconjugated hypericin GNP conjugate (FIG. 9b). […]

For another assay, the system named is CNE2 cells. The description is as above. Format: cell-based. Particulars: 2 hypericin, about 6 hours, physiological conditions. How it is done:
Confocal fluorescence microscopy is used to study CNE2 cells treated with 2 hypericin and A-431 cells treated with Hypericin-Au-EGFR theragnostic probe for about 6 hours under physiological conditions. […] This will be ideal for a probe for diagnosis and therapy.

The subject of another assay is A-431 cell lines. Put plainly: PDT in cellular model, white light, apoptosis/necrosis staining (Example 7). Particulars: about 12 hours incubation, broadband white light; hypericin 2-10 μM. It is filed as cell-based, human. How it is done:
After establishing the internalization and delivery capabilities of Hypericin-Au-EGFR probe, the therapeutic potential of the probe by conducting a PDT experiment in a cellular model is examined. Hypericin-Au-EGFR probe and various amounts of hypericin are incubated with A-431 cell lines for about 12 hours and PDT is conducted using a broadband excitation using white light. Post PDT images are recorded using a confocal fluorescence microscopy with differential staining for apoptosis in green (as indicated by the white encircled area) and necrosis in red (as shown by the lighter shade indicated by the white arrow) to assess the PDT effect.

For `Cc1cc(O)c2c(=O)c3c(O)cc(O)c4c5c(O)cc(O)c6c(=O)c7c(O)cc(C)c8c1c2c(c34)c(c78)c65` [hypericin], the “intensity of hypericin fluorescence, hypericin alone compared to bioconjugated hypericin GNP” value in the assay on A-431 cells was “greater”. Moreover, the “hypericin fluorescence in cells” value in the assay on CNE2 cells was “hypericin fluorescence from within the cell”. For the same molecule, in the assay with A-431 cell lines, the “mode of cell death after PDT” value is on record as “cell death via necrosis”.
